Where two headings read alike, the source gives them in different places.
Assays:
[1] = test system: Plasmodium berghei (Pb-Luc) exoerythrocytic-stage parasites; conditions: for normalized signal at concentration 10 / normalized signal at concentration 0.000508053 / normalized signal at concentration 0.00152416 / normalized signal at concentration 0.00457247 / normalized signal at concentration 0.0137174 / normalized signal at concentration 0.0411523 / normalized signal at concentration 0.123457 / normalized signal at concentration 0.37037 / normalized signal at concentration 1.11111 / normalized signal at concentration 3.33333: fraction of control; for IC50: read-out: PbLuc_IC50
HepG2-A16-CD81EGFP cells = conditions: for IC50: read-out: Tox_IC50, HepG2 cytotoxicity
[2] = first series of dose-response columns
[3] = sheet 2nd round, Broad compounds, dose response
[4] = second series of dose-response columns
[5] = sheet 2nd round, maximal inhibition in dose response
[6] = sheet 2nd round, Pb-Luc exoerythrocytic stage, 10-point dose response, top concentration 10
[7] = second series of columns (replicate)

COc1ccc(S(=O)(=O)N(C)C[C@H]2Oc3ccc(NC(=O)Cc4cn(C)c5ccccc45)cc3C(=O)N([C@H](C)CO)C[C@@H]2C)cc1 [BRD-K30240821-001-02-4]
normalized signal at concentration 10 [1, 2]: 0.7772
normalized signal at concentration 0.000508053 ([1]; first series): 0.8923
normalized signal at concentration 0.00152416 ([1]; first series): 0.848
normalized signal at concentration 0.00457247 ([1]; first series): 0.7066
normalized signal at concentration 0.0137174 ([1]; first series): 0.8032
normalized signal at concentration 0.0411523 ([1]; first series): 0.8311
normalized signal at concentration 0.123457 ([1]; first series): 1.098
normalized signal at concentration 0.37037 ([1]; first series): 0.9739
normalized signal at concentration 1.11111 ([1]; first series): 0.9836
normalized signal at concentration 3.33333 ([1]; first series): 0.9041
IC50 [1, 3]: > 10 µM
normalized signal at concentration 10 [1, 4]: 0.9286
normalized signal at concentration 0.000508053 ([1]; second series): 0.993
normalized signal at concentration 0.00152416 ([1]; second series): 0.893
normalized signal at concentration 0.00457247 ([1]; second series): 0.9938
normalized signal at concentration 0.0137174 ([1]; second series): 0.8741
normalized signal at concentration 0.0411523 ([1]; second series): 1.056
normalized signal at concentration 0.123457 ([1]; second series): 0.8643
normalized signal at concentration 0.37037 ([1]; second series): 1.021
normalized signal at concentration 1.11111 ([1]; second series): 1.07
normalized signal at concentration 3.33333 ([1]; second series): 1.082
PbLuc_max_inhibition (%) [1, 5]: 29%
IC50 (HepG2-A16-CD81EGFP cells; sheet 2nd round): > 10 µM
Tox_max_inhibition (%) (HepG2-A16-CD81EGFP cells; [5]): 8.48%

O=C(Nc1ccc2c(c1)[C@@H]1C[C@@H](CC(=O)N3CCc4ccccc4C3)O[C@@H](CO)[C@@H]1O2)c1ccc2c(c1)OCO2 [BRD-K15778794-001-01-7]
normalized signal at concentration 0.000508053 ([1]; first series of columns): 1.025
normalized signal at concentration 0.00152416 ([1]; first series of columns): 1.17
normalized signal at concentration 0.00457247 ([1]; first series of columns): 0.8971
normalized signal at concentration 0.0137174 ([1]; first series of columns): 1.186
normalized signal at concentration 0.0411523 ([1]; first series of columns): 1.0917
normalized signal at concentration 0.123457 ([1]; first series of columns): 0.8992
normalized signal at concentration 0.37037 ([1]; first series of columns): 1.075
normalized signal at concentration 1.11111 ([1]; first series of columns): 1.105
normalized signal at concentration 3.33333 ([1]; first series of columns): 0.9056
normalized signal at concentration 10 ([1]; first series of columns): 0.4372
IC50 [1, 6]: > 10 µM
normalized signal at concentration 0.000508053 [1, 7]: 0.9828
normalized signal at concentration 0.00152416 [1, 7]: 0.8672
normalized signal at concentration 0.00457247 [1, 7]: 0.9127
normalized signal at concentration 0.0137174 [1, 7]: 0.911
normalized signal at concentration 0.0411523 [1, 7]: 0.8229
normalized signal at concentration 0.123457 [1, 7]: 0.8258
normalized signal at concentration 0.37037 [1, 7]: 0.9225
normalized signal at concentration 1.11111 [1, 7]: 1.043
normalized signal at concentration 3.33333 [1, 7]: 0.8183
normalized signal at concentration 10 [1, 7]: 0.6797
PbLuc_max_inhibition (%) [1, 5]: 56%
IC50 (HepG2-A16-CD81EGFP cells; sheet 2nd round): > 10 µM
Tox_max_inhibition (%) (HepG2-A16-CD81EGFP cells; [5]): 18%

C[C@@H]1CN([C@@H](C)CO)C(=O)c2cccc(NC(=O)c3ccc(-c4nccs4)cc3)c2O[C@H]1CN(C)C(=O)Nc1ccc(C(F)(F)F)cc1 [BRD-K97485207-001-01-1]
normalized signal at concentration 10 [1, 2]: 0.53
normalized signal at concentration 0.000508053 ([1]; first series): 0.80
normalized signal at concentration 0.00152416 ([1]; first series): 0.94
normalized signal at concentration 0.00457247 ([1]; first series): 0.89
normalized signal at concentration 0.0137174 ([1]; first series): 0.64
normalized signal at concentration 0.0411523 ([1]; first series): 0.84
normalized signal at concentration 0.123457 ([1]; first series): 1.04
normalized signal at concentration 0.37037 ([1]; first series): 0.85
normalized signal at concentration 1.11111 ([1]; first series): 0.73
normalized signal at concentration 3.33333 ([1]; first series): 0.73
IC50 [1, 3]: > 10 µM
normalized signal at concentration 10 [1, 4]: 0.66
normalized signal at concentration 0.000508053 ([1]; second series): 0.85
normalized signal at concentration 0.00152416 ([1]; second series): 0.90
normalized signal at concentration 0.00457247 ([1]; second series): 0.80
normalized signal at concentration 0.0137174 ([1]; second series): 0.89
normalized signal at concentration 0.0411523 ([1]; second series): 0.77
normalized signal at concentration 0.123457 ([1]; second series): 0.77
normalized signal at concentration 0.37037 ([1]; second series): 0.95
normalized signal at concentration 1.11111 ([1]; second series): 0.95
normalized signal at concentration 3.33333 ([1]; second series): 0.97
PbLuc_max_inhibition (%) [1, 5]: 47%
IC50 (HepG2-A16-CD81EGFP cells; sheet 2nd round): > 10 µM
Tox_max_inhibition (%) (HepG2-A16-CD81EGFP cells; [5]): 6.47%

COc1cccc(NC(=O)N[C@@H]2CC[C@H](CC(=O)N3CCN(C)CC3)O[C@@H]2CO)c1 [BRD-K48690594-001-01-7]
normalised signal at concentration 0.000508053 (first series) ([1]; concentration 0.000508053, first series): 0.9068
normalised signal at concentration 0.000508053 (second series) ([1]; concentration 0.000508053, second series): 0.9275
normalised signal at concentration 0.00152416 (first series) ([1]; concentration 0.00152416, first series): 1.012
normalised signal at concentration 0.00152416 (second series) ([1]; concentration 0.00152416, second series): 1.043
normalised signal at concentration 0.00457247 (first series) ([1]; concentration 0.00457247, first series): 1.046
normalised signal at concentration 0.00457247 (second series) ([1]; concentration 0.00457247, second series): 0.8968
normalised signal at concentration 0.0137174 (first series) ([1]; concentration 0.0137174, first series): 1.108
normalised signal at concentration 0.0137174 (second series) ([1]; concentration 0.0137174, second series): 0.8364
normalised signal at concentration 0.0411523 (first series) ([1]; concentration 0.0411523, first series): 0.955
normalised signal at concentration 0.0411523 (second series) ([1]; concentration 0.0411523, second series): 1.013
normalised signal at concentration 0.123457 (first series) ([1]; concentration 0.123457, first series): 0.854
normalised signal at concentration 0.123457 (second series) ([1]; concentration 0.123457, second series): 0.8546
normalised signal at concentration 0.37037 (first series) ([1]; concentration 0.37037, first series): 1.036
normalised signal at concentration 0.37037 (second series) ([1]; concentration 0.37037, second series): 0.9102
normalised signal at concentration 1.11111 (first series) ([1]; concentration 1.11111, first series): 1.0718
normalised signal at concentration 1.11111 (second series) ([1]; concentration 1.11111, second series): 0.9366
normalised signal at concentration 3.33333 (first series) ([1]; concentration 3.33333, first series): 0.8922
normalised signal at concentration 3.33333 (second series) ([1]; concentration 3.33333, second series): 0.9328
normalised signal at concentration 10 (first series) ([1]; concentration 10, first series of dose columns): 0.9136
normalised signal at concentration 10 (second series) ([1]; concentration 10, second series of dose columns): 0.9502
IC50 ([1]; sheet "2nd round", Broad compounds, dose response top concentration 10): > 10 µM
PbLuc_max_inhibition (%) ([1]; sheet "2nd round"): 16%
IC50 (HepG2-A16-CD81EGFP cells; sheet "2nd round"): > 10 µM
Tox_max_inhibition (%) (HepG2-A16-CD81EGFP cells; sheet "2nd round"): 14%

CO[C@H]1CN(C)C(=O)c2cc(NC(=O)c3cccc(F)c3)ccc2OC[C@H](C)N(C)C[C@H]1C [BRD-K79512815-001-01-8]
normalized signal at concentration 0.000508053 ([1]; first series of columns): 0.92
normalized signal at concentration 0.00152416 ([1]; first series of columns): 0.8929
normalized signal at concentration 0.00457247 ([1]; first series of columns): 0.8757
normalized signal at concentration 0.0137174 ([1]; first series of columns): 1.1664
normalized signal at concentration 0.0411523 ([1]; first series of columns): 0.9194
normalized signal at concentration 0.123457 ([1]; first series of columns): 0.814
normalized signal at concentration 0.37037 ([1]; first series of columns): 0.9475
normalized signal at concentration 1.11111 ([1]; first series of columns): 0.9407
normalized signal at concentration 3.33333 ([1]; first series of columns): 0.9302
normalized signal at concentration 10 ([1]; first series of columns): 0.6026
IC50 [1, 6]: > 10 µM
normalized signal at concentration 0.000508053 [1, 7]: 0.9673
normalized signal at concentration 0.00152416 [1, 7]: 1.022
normalized signal at concentration 0.00457247 [1, 7]: 0.9573
normalized signal at concentration 0.0137174 [1, 7]: 0.903
normalized signal at concentration 0.0411523 [1, 7]: 0.8874
normalized signal at concentration 0.123457 [1, 7]: 0.788
normalized signal at concentration 0.37037 [1, 7]: 0.9616
normalized signal at concentration 1.11111 [1, 7]: 0.8772
normalized signal at concentration 3.33333 [1, 7]: 0.9295
normalized signal at concentration 10 [1, 7]: 0.8924
PbLuc_max_inhibition (%) [1, 5]: 40%
IC50 (HepG2-A16-CD81EGFP cells; sheet 2nd round): > 10 µM
Tox_max_inhibition (%) (HepG2-A16-CD81EGFP cells; [5]): 6%

C[C@@H]1CN([C@@H](C)CO)C(=O)c2ccccc2-c2ccccc2CO[C@@H]1CN(C)S(=O)(=O)Cc1ccccc1 [BRD-K06421369-001-01-0]
normalized signal at concentration 0.000508053 ([1]; first series of columns): 1.055
normalized signal at concentration 0.00152416 ([1]; first series of columns): 1.041
normalized signal at concentration 0.00457247 ([1]; first series of columns): 0.8367
normalized signal at concentration 0.0137174 ([1]; first series of columns): 0.8756
normalized signal at concentration 0.0411523 ([1]; first series of columns): 0.8835
normalized signal at concentration 0.123457 ([1]; first series of columns): 1.014
normalized signal at concentration 0.37037 ([1]; first series of columns): 0.8794
normalized signal at concentration 1.11111 ([1]; first series of columns): 0.8244
normalized signal at concentration 3.33333 ([1]; first series of columns): 1.118
normalized signal at concentration 10 ([1]; first series of columns): 0.9941
IC50 [1, 6]: > 10 µM
normalized signal at concentration 0.000508053 [1, 7]: 0.9052
normalized signal at concentration 0.00152416 [1, 7]: 1.004
normalized signal at concentration 0.00457247 [1, 7]: 1.069
normalized signal at concentration 0.0137174 [1, 7]: 0.9457
normalized signal at concentration 0.0411523 [1, 7]: 0.8932
normalized signal at concentration 0.123457 [1, 7]: 1.033
normalized signal at concentration 0.37037 [1, 7]: 1.094
normalized signal at concentration 1.11111 [1, 7]: 1.104
normalized signal at concentration 3.33333 [1, 7]: 1.032
normalized signal at concentration 10 [1, 7]: 0.8304
PbLuc_max_inhibition (%) [1, 5]: 18%
IC50 (HepG2-A16-CD81EGFP cells; sheet 2nd round): > 10 µM
Tox_max_inhibition (%) (HepG2-A16-CD81EGFP cells; [5]): 8.54%

From paper PMC4890880 (ACS infectious diseases, 2016)
